Data on four molecules can be found in patent publication US8022072B2, “Azolylmethylidenehydrazine derivative and use thereof” (Kaken Pharmaceutical Co., Ltd., priority 2007, dated 2011).

For experiment [1], the system named is Trichophyton mentagrophytes KD-04. Put plainly: Antifungal activity evaluation test, MIC, Trichophyton mentagrophytes KD-04. Type of experiment: cell-based. As to conditions: KD04, 168 h, Sabouraud Dextrose Broth, 30° C., 7 days, visual, read-out: MIC T. men. KD-04.
The subject of experiment [2] is Trichophyton mentagrophytes SM-110. Put plainly: Antifungal activity evaluation test, MIC, Trichophyton mentagrophytes SM-110. It counts as cell-based. As to conditions: SM110, 168 h, Sabouraud Dextrose Broth, 30° C., 7 days, visual, read-out: MIC T. men. SM-110.
Experiment [3] deals with Trichophyton rubrum KD-101. The experiment can be described thus: Antifungal activity evaluation test, MIC, Trichophyton rubrum KD-101. It counts as cell-based. As to conditions: KD101, 168 h, Sabouraud Dextrose Broth, 30° C., 7 days, visual, read-out: MIC T. rub. KD-101.
The test system of experiment [4] is Trichophyton rubrum KD-107. Put plainly: Antifungal activity evaluation test, MIC, Trichophyton rubrum KD-107. It counts as cell-based. As to conditions: KD107, 168 h, Sabouraud Dextrose Broth, 30° C., 7 days, visual, read-out: MIC T. rub. KD-107.
In experiment [5] the test system is Malassezia furfur IFO-0656. The experiment can be described thus: Antifungal activity evaluation test, MIC by urease activity, Malassezia furfur IFO-0656. It counts as cell-based. To be noted: IFO0656, 96 h, MU medium, 30° C., day 4 or 5, urease activity of 20% or below, read-out: MIC M. fur. IFO-0656.
Experiment [6] deals with Trichophyton mentagrophytes KD-04. Put plainly: Influence of keratin addition on anti-Trichophyton activity. It counts as cell-based. To be noted: Trichophyton mentagrophytes, KD04, 168 h, 30° C., 7 days. The protocol:
The MIC increase rate by the addition of keratin to a medium was measured by the following procedure. • Test compound solution: A test compound was dissolved in dimethyl sulfoxide (DMSO) at a concentration of 5 mg/mL as a stock solution. Diluting this solution with DMSO, a 2-fold dilution series was prepared. • Test strain: Trichophyton mentagrophytes KD-04 was used. Preparation of Fungal Inoculum: the Above-Mentioned Strain was suspended in 0.05% Tween 80-containing physiological saline, and adjusted to a fungus concentration of 2×10^6 cells/mL using a counting chamber. […] The physiological saline was removed, and the mixture was further washed once with physiological saline (3 mL). The physiological saline was removed, and a test compound solution (10 μL) and Sabouraud Dextrose Broth (Difco) (500 μL) were added to keratin, and the mixture was sufficiently stirred. Then, inoculum (500 μL) of T. mentagrophytes KD-04 was added, and the mixture was cultured at 30° C. for 7 days. As a comparison control, an experiment similar to the above was performed under conditions free of keratin addition.

The subject of experiment [7] is TNCB-induced dermatitis. The experiment can be described thus: 2,4,6-Trinitrochlorobenzene (TNCB)-induced dermatitis model, ear edema. Type of experiment: in vivo, male BALB/c mouse. As to conditions: test compound 1 w/v % (FK506 0.1 w/v %), 20 μL applied to auricle, 24 hours after induction. The protocol: (§1) The test compound was adjusted to 1 w/v % when in use with a solvent (acetone:olive oil=1:1, v/v)) and put to use. FK506 (control substance) was adjusted to 0.1 w/v % and used.
The fur on the abdomen of male BALB/c mouse was shaved with a hair clipper, and 100 μL of 7 w/v % TNCB sensitizing liquid (solvent was acetone:olive oil=4:1, v/v) was applied. Six days after the sensitization, the thickness of the right auricle was measured with a micrometer (pre-value). After the measurement, 10 μL of 1 w/v % TNCB challenge liquid (solvent was acetone:olive oil=1:9, v/v) was applied to the inside of the right auricle to induce ear edema. About 5 minutes after the application of the challenge liquid, 20 μL of the test compound was applied to the outside of the auricle.
After 24 hours from the induction of ear edema, the thickness of the right auricle was measured by a method similar to the pre-value (post-value). The difference between the post-value and the pre-value of ear edema by each test compound was determined, based on which the inhibition rate was calculated. The activity of each test compound was calculated with the ear edema inhibition rate of FK506 as 1.0 (ear edema inhibition rate of each test compound/ear edema inhibition rate of FK506).

Experiment [8] relates to OVA-induced dermatitis. The experiment can be described thus: Ovalbumin (OVA)-induced dermatitis model, ear edema. On the set-up: key: ratio of compound's ear edema inhibition rate to FK506's (FK506 = 1.0). Type of experiment: in vivo, male ICR mouse. To be noted: test compound 1 w/v % (FK506 0.1 w/v %), 20 μL applied to auricle, 24 hours after induction. The protocol: as §1
Male ICR mouse was sensitized by the administration of 0.2 mL of OVA-hydroxide aluminum gel suspension to the abdominal cavity. After 14 days from the sensitization, the thickness of the right auricle was measured with a micrometer (pre-value). After the measurement, 20 μL of 0.5 μg/mL OVA challenge liquid (solvent was physiological saline) was subcutaneously administered to the inside of the auricle to induce ear edema. About 5 minutes after the administration of the challenge liquid, 20 μL of the test compound was applied to the outside of the auricle. After 24 hours from the induction of ear edema, the thickness of the right auricle was measured by a method similar to the pre-value (post-value). The difference between the post-value and the pre-value of ear edema by each test compound was determined, based on which the inhibition rate was calculated. The activity of each test compound was calculated with the ear edema inhibition rate of FK506 as 1.0 (ear edema inhibition rate of each test compound/ear edema inhibition rate of FK506).

The mark [9] stands for this setting: T. mentagrophytes KD-04, free of keratin addition, read-out: MIC SDB alone.
Where [10] appears, read: T. mentagrophytes KD-04, keratin 50 mg added, read-out: MIC SDB + keratin.

Each structure is given as a SMILES string. ≈ marks a conversion by molar mass, not a printed value.

For `COc1ccc(COc2ccccc2C(=NN(C)C)n2ccnc2)cc1` [Compound No. 52, N′-[1-imidazol-1-yl-1-[2-(4-methoxybenzyloxy)phenyl]methylidene]-N,N-dimethylhydrazine], the MIC turned out to be 0.2 µg/mL (≈ 0.571 µM) in experiment [1]; 0.39 µg/mL (≈ 1.11 µM) in experiment [2]; 0.05 µg/mL (≈ 0.143 µM) in experiment [3]; 0.05 µg/mL (≈ 0.143 µM) in experiment [4]; 0.39 µg/mL (≈ 1.11 µM) in experiment [5]; 0.1 µg/mL (≈ 0.285 µM) in experiment [6] (setting [9]). In experiment [6] (setting [10]), the minimum inhibitory concentration (MIC) is 0.2 µg/mL. The “TNCB-induced dermatitis, with ear edema inhibition rate of FK506 as 1.0” value in experiment [7] came to 0.7. Besides, the “OVA-induced dermatitis, with ear edema inhibition rate of FK506 as 1.0” value in experiment [8] is 1.1.

As to `CN(C)N=C(c1ccccc1OCCOc1ccccc1)n1ccnc1` [Compound No. 66, N′-[1-imidazol-1-yl-1-[2-(2-phenoxyethoxy)phenyl]methylidene]-N,N-dimethylhydrazine], the MIC in experiment [1] is 0.1 µg/mL (≈ 0.285 µM); in experiment [2] it was 0.2 µg/mL (≈ 0.571 µM); in experiment [3], 0.1 µg/mL (≈ 0.285 µM); in experiment [4], 0.05 µg/mL (≈ 0.143 µM); in experiment [5] it was 0.39 µg/mL (≈ 1.11 µM); in experiment [6] (setting [9]) it was 0.05 µg/mL (≈ 0.143 µM). In addition, the MIC in experiment [6] (setting [10]) was found to be 0.1 µg/mL. For the same molecule, the “TNCB-induced dermatitis, with ear edema inhibition rate of FK506 as 1.0” value in experiment [7] is reported as 0.8. The “OVA-induced dermatitis, with ear edema inhibition rate of FK506 as 1.0” value in experiment [8] was determined as 1.1.

`CCCCSc1ccccc1C(=NN(C)C)n1ccnc1` [Compound No. 82, N′-[1-(2-butylthiophenyl)-1-imidazol-1-ylmethylidene]-N,N-dimethylhydrazine]: the MIC in experiment [1] amounted to 0.05 µg/mL (≈ 0.165 µM); in experiment [2] it was 0.2 µg/mL (≈ 0.661 µM); in experiment [3] it was 0.1 µg/mL (≈ 0.331 µM); in experiment [4], 0.05 µg/mL (≈ 0.165 µM); in experiment [5], 0.78 µg/mL (≈ 2.58 µM); in experiment [6] (setting [9]), 0.1 µg/mL (≈ 0.331 µM). In addition, the MIC in experiment [6] (setting [10]) was 0.2 µg/mL. The “TNCB-induced dermatitis, with ear edema inhibition rate of FK506 as 1.0” value in experiment [7] came out at 0.6. For the same molecule, the “OVA-induced dermatitis, with ear edema inhibition rate of FK506 as 1.0” value in experiment [8] was 1.1.

As for `c1ccc(OCCOc2ccccc2C(=NN2CCCC2)n2ccnc2)cc1` [Compound No. 161, [1-imidazol-1-yl-1-[2-(2-phenoxyethoxy)phenyl]methylidene]pyrrolidin-1-ylamine], the MIC in experiment [1] amounted to 0.2 µg/mL (≈ 0.531 µM); in experiment [2], 0.39 µg/mL (≈ 1.04 µM); in experiment [3], 0.1 µg/mL (≈ 0.266 µM); in experiment [4], 0.1 µg/mL (≈ 0.266 µM); in experiment [5] it was 0.39 µg/mL (≈ 1.04 µM). Moreover, the “TNCB-induced dermatitis, with ear edema inhibition rate of FK506 as 1.0” value in experiment [7] was found to be 0.7. Also, the “OVA-induced dermatitis, with ear edema inhibition rate of FK506 as 1.0” value in experiment [8] is given as 0.9.
